This note sets out measurements from patent publication US20080274192A1, “Pharmaceutical Compositions Comprising an Amorphous Form of a Vegf-R-Inhibitor” (PFIZER INC., priority 2005, published 2008).

Common to all, as to type: physicochemical
One data set is described as follows: pKa of Compound A. The following applies: crystalline polymorphic Form IV.
Data set [1] is described as follows: solubility in model fasted duodenal solution. The following applies: fassif, pH 6.5, 37° C. The source says:
Compound A can exist in several different crystalline forms, as described in U.S. Provisional Application 60/624,665, filed on Nov. 2, 2004, which is incorporated herein by reference. Compound A in the crystalline form referred to as polymorphic Form IV has a pKa of about 4.2, and a solubility that is dependent on the pH of the solution, with the solubility being higher at low pH than at high pH. […] This pH-dependent solubility combined with a low in vivo rate of absorption results in low oral bioavailability, as well as significant subject-to-subject pharmacokinetic variability, for crystalline Compound A. Accordingly, there is a need to improve the bioavailability and reduce pharmacokinetic variability of Compound A relative to its crystalline form.

The nature of data set [2]: in vitro dissolution test in MFD solution, dosed as oral powder for constitution. As to conditions: for AUC90 (area under the concentration-versus-time curve during the initial ninety minutes) / MDC90 (maximum dissolved concentration during the initial ninety minutes): MFD solution pH 6.5, 37° C., 200 μgA/mL dosed; for MDC90 (maximum dissolved concentration during the initial ninety minutes): pre-wetted with PBS/Methocel A/HPMCAS-H (OPC model). The procedure:
An in vitro dissolution test was performed to determine the dissolution performance of amorphous Compound A relative to crystalline Compound A. For this test, a sufficient amount of material was added to a microcentrifuge test tube so that the concentration of Compound A would have been 200 μgA/mL, if all of the compound had dissolved. The test was run in duplicate. First, 50 μL PBS containing 0.5 wt % Methocel A and 5 mg/mL HPMCAS-H was added to the sample in the tube and mixed using a vortex mixer, to model an oral powder for constitution dosage form. The tubes were placed in a 37° C. temperature-controlled chamber, and 1.8 mL PBS at pH 6.5 and 290 mOsm/kg, containing 7.3 mM sodium taurocholic acid and 1.4 mM of 1-palmitoyl-2-oleyl-sn-glycero-3-phosphocholine, was added to each respective tube. The samples were quickly mixed using a vortex mixer for about 60 seconds. The samples were centrifuged at 13,000 G at 37° C. for 1 minute. The resulting supernatant solution was then sampled and diluted 1:6 (by volume) with methanol and then analyzed by HPLC as described above. The contents of each tube were mixed on the vortex mixer and allowed to stand undisturbed at 37° C. until the next sample was taken. Samples were collected at 4, 10, 20, 40, 90, and 1200 minutes.
A similar test was performed with crystalline Compound A alone (Example 1), and a sufficient amount of material was added so that the concentration of compound would have been 200 μgA/mL, if all of the compound had dissolved.
The concentrations of Compound A obtained in these samples were used to determine the maximum dissolved concentration of Compound A (“MDC90”) and the area under the concentration-versus-time curve (“AUC90”) during the initial ninety minutes.
For these tests, a sufficient amount of material was added so that the concentration of Compound A would have been 200 μgA/mL, if all of the compound had dissolved. The results for the solid amorphous dispersion of Example 2 are included in Table 6, as are the results for tests with pure amorphous Compound A (Example 1) and crystalline Compound A (Example 1).

Data set [3] in a line: in vitro dissolution test in MFD solution, material added directly. As to conditions: MFD solution pH 6.5, 37° C., 200 μgA/mL dosed, no OPC pre-wetting. The procedure:
An in vitro dissolution test was performed to determine the dissolution performance of the solid amorphous dispersion of Compound A relative to crystalline Compound A. For this test, a sufficient amount of material was added to a microcentrifuge test tube so that the concentration of Compound A would have been 200 μgA/mL, if all of the compound had dissolved. The test was run in duplicate. The tubes were placed in a 37° C. temperature-controlled chamber, and 1.8 mL PBS at pH 6.5 and 290 mOsm/kg, containing 7.3 mM sodium taurocholic acid and 1.4 mM of 1-palmitoyl-2-oleyl-sn-glycero-3-phosphocholine, was added to each respective tube. The samples were quickly mixed using a vortex mixer for about 60 seconds. The samples were centrifuged at 13,000 G at 37° C. for 1 minute. The resulting supernatant solution was then sampled and diluted 1:6 (by volume) with methanol and analyzed by high-performance liquid chromatography (HPLC). HPLC analysis was performed using a Waters C18 column. The mobile phase consisted of 65% 20 mM ammonium phosphate, adjusted to pH 3 with H3PO4, and 35% acetonitrile. UV absorbance was measured at 350 nm. The contents of each tube were mixed on the vortex mixer and allowed to stand undisturbed at 37° C. until the next sample was taken. Samples were collected at 4, 10, 20, 40, 90, and 1200 minutes. […]

≈ marks a conversion by molar mass, not a printed value.

For orientation: pKa means the pH at which an ionisable group is half protonated. Low readings indicate a group that gives up its proton readily, high ones a group that holds its proton tightly. The term solubility denotes the concentration that dissolves in the medium under given conditions. Low readings indicate little dissolved substance, high ones much dissolved substance.

In the data set “pKa of Compound A”, `CNC(=O)c1ccccc1Sc1ccc2c(/C=C/c3ccccn3)n[nH]c2c1` [Compound A, 6-[2-(methylcarbamoyl)phenylsulfanyl]-3-E-[2-(pyridin-2-yl)ethenyl]indazole] showed a pKa of about 4.2. The compound also had a solubility in data set [1] of about 4 µg/mL (≈ 10.3 µM).
On to `CNC(=O)c1ccccc1Sc1ccc2c(/C=C/c3ccccn3)n[nH]c2c1` [Example 1, 6-[2-(methylcarbamoyl)phenylsulfanyl]-3-E-[2-(pyridin-2-yl)ethenyl]indazole], for which the “AUC90 (area under the concentration-versus-time curve during the initial ninety minutes)” value in data set [2] (OPC model) stood at 1700 min * μgA/mL. Moreover, in data set [2], the “MDC90 (maximum dissolved concentration during the initial ninety minutes)” value turned out to be 48 μgA/mL. In data set [2] (OPC model, MFD solution), the “AUC90 relative to crystalline Compound A” value came out at 5.7 fold and the “MDC90 relative to crystalline Compound A” value was found to be 16 fold.
As to `CNC(=O)c1ccccc1Sc1ccc2c(/C=C/c3ccccn3)n[nH]c2c1` [Crystalline Compound A, 6-[2-(methylcarbamoyl)phenylsulfanyl]-3-E-[2-(pyridin-2-yl)ethenyl]indazole], the entries for the “AUC90 (area under the concentration-versus-time curve during the initial ninety minutes)” value in data set [3] and in data set [2] (OPC model) were 200 min * μgA/mL and 300 min * μgA/mL, respectively. In addition, the “MDC90 (maximum dissolved concentration during the initial ninety minutes)” value in data set [3] and in data set [2] was 3 μgA/mL in each case.
